Experimental data from patent publication US5594009A, “Fused pyrrolocarbazoles” (priority 1995, dated 1997).

system: choline acetyltransferase (ChAT) activity in dissociated rat embryonic spinal cord culture; assay: Spinal Cord ChAT Activity Assay; assay type: cell-based; conditions: ChAT measured after 48 hours; further: test concentration or dose not given here

Molecule	Spinal Cord ChAT Activity, % of Control, untreated cultures
Cc1cccc2c1[nH]c1c3c(c4c(c12)C(=O)NC4=O)-c1ccccc1C3 [Compound Ib-1, 1-Methyl-12H, 13H-indeno[2,3-a]pyrrolo[3,4-c]carbazole-6H-5,7(5H, 7H)-dione]	138 % of Control
O=C1NC(=O)c2c1c1c(c3[nH]c4ccccc4c23)CCc2cc(F)ccc2-1 [Compound Ia-4, 10-Fluoro-12,13-dihydro-6H, 14H-naphthyl[3,4-a]pyrrolo[3,4-c]carbazole-5,7(5H, 7H)dione]	< 120 % of Control
O=C1NCc2c1c1c(c3[nH]c4ccc(C=CN5C(=O)c6ccccc6C5=O)cc4c23)Cc2ccccc2-1 [Compound I-39, 3-(2-(2-Phthalimido)ethenyl)-5H,6H,12H,13H-indeno[2,3-a]pyrrolo[3,4-c]carbazole-7(7H)-one]	268 % of Control
CCCCCc1ccc2[nH]c3c4c(c5c(c3c2c1)C(=O)NC5=O)-c1ccccc1C4 [Compound I-37, 3-Pentyl-6H,12H,13H-indeno[2,3-a]pyrrolo[3,4-c]carbazole-5,7(5H,7H)dione]	< 120 % of Control
O=C1NC(=O)c2c1c1c(c3[nH]c4ccccc4c23)CCc2cc(Br)ccc2-1 [Compound Ia-5, 10-Bromo-12,13-dihydro-6H, 14H-naphthyl[3,4,-a]pyrrolo[3,4-c]carbazole-5,7(5H, 7H)dione]	132 % of Control
mixture of 13-Methyl-6H, 7H, 12H-indeno[2,3-a]pyrrolo[3,4-c]carbazole-5(5H)one and 13-methyl-5H, 6H, 12H-indeno[2,3-a]pyrrolo[3,4,-c]carbazole-7(7H)one [Compound I-5]	137 % of Control
O=C1NCc2c1c1c(c3[nH]c4ccc(Br)cc4c23)CCc2ccccc2-1 [Compound I-19, 3-Bromo-12,13-Dihydro-5H, 6H, 14H-naphthyl[3,4-a]pyrrolo[3,4-c]carbazole-7(7H)one]	203 % of Control
O=C1NCc2c1c1c(c3[nH]c4ccc(-c5ccccc5)cc4c23)Cc2ccccc2-1 [Compound I-27, 3-Phenyl-5H,6H,12H,13H-indeno[2,3-a]pyrrolo[3,4-c]carbazole-7(7H)one]	120 % of Control
O=C1NCc2c3c(c4[nH]c5ccc(C=Cc6ccccn6)cc5c4c21)Cc1ccccc1-3 [Compound I-41, 3-(2-(2-Pyridylethenyl))-6H,7H,12H,13H-indeno[2,3-a]pyrrolo[3,4-c]carbazole-5(5H)-one]	122 % of Control
O=C1NCc2c1c1c(c3[nH]c4ccc(C=CI)cc4c23)Cc2ccccc2-1 [Compound I-44]	127 % of Control
CCOC(=O)C=Cc1ccc2[nH]c3c4c(c5c(c3c2c1)CNC5=O)-c1ccccc1C4 [Compound I-25, 3-(3-Ethyl propenoate)-5H,6H,12H,13H-indeno[2,3-a]pyrrolo[3,4-c]carbazole-7(7H)one]	168 % of Control
O=C1NC(=O)c2c1c1c(c3[nH]c4ccccc4c23)CCc2cc(C=Cc3ccccn3)ccc2-1 [Compound Ia-6]	139 % of Control
O=C1NC(=O)c2c1c1c(c3[nH]c4ccccc4c23)Cc2cc(Br)ccc2-1 [Compound Ia-3, 10-bromo-6H, 12H, 13H-indeno[2,3-a]pyrrolo[3,4-c]carbazole-5,7(5H, 7H)dione]	138 % of Control
O=C1NC(=O)c2c1c1c(c3[nH]c4ccccc4c23)Cc2ccc(Br)cc2-1 [Compound Ib-2]	153 % of Control
O=C1NCc2c1c1c(c3[nH]c4ccc(C=Cc5ccncc5)cc4c23)Cc2ccccc2-1 [Compound I-33, 3-(2-(4-Pyridyl)ethenyl)-5H,6H,12H,13H-indeno[2,3-a]pyrrolo[3,4-c]carbazole-7(7H)-one]	144 % of Control
O=C1NC(=O)c2c1c1c(c3[nH]c4ccccc4c23)CCc2cc(CCc3ccccn3)ccc2-1 [Compound Ia-7]	< 120 % of Control
O=C1NC(O)c2c1c1c3ccccc3ccc1c1[nH]c3ccccc3c21 (stereo not drawn) [Compound I-38, 5-Hydroxy-12,13-dihydro-6H, 14H-naphthyl[3,4-a]pyrrolo[3,4-c]carbazole-7(7H)one]	208 % of Control
O=C1NC(=O)c2c1c1c(c3[nH]c4ccc(Cl)cc4c23)Cc2ccccc2-1 [Compound I-10, 3-Chloro-6H , 12H, 13H-indeno[2,3-a]pyrrolo[3,4-c]carbazole-5,7(5H, 7H)-dione]	189 % of Control
Cn1c2ccccc2c2c3c(c4c(c21)Cc1ccccc1-4)C(=O)NC3=O [Compound I-4, 13-Methyl-6H, 12H-indeno[2,3-a]pyrrolo[3,4-c]carbazole-5,7(5H, 7H)-dione]	124 % of Control
O=C1NCc2c1c1c3ccccc3[nH]c1c1sc3ccccc3c21 [Compound I-42, 6H, 7H, 12H-Benzo[b]thieno[2,3-a]pyrrolo[3,4-c]carbazole-5(5H)one]	177 % of Control
N#CC=Cc1ccc2[nH]c3c4c(c5c(c3c2c1)CNC5=O)-c1ccccc1C4 [Compound I-35, 3-(2-Cyanoethenyl)-5H,6H,12H,13H-indeno[2,3-a]pyrrolo[3,4-c]carbazole-7(7H)one]	121 % of Control
3-Fluoro6H, 7H, 12H, 13H-indeno[2,3-a]pyrrolo[3,4-c]carbazole-5(5H)one and 3-fluoro-5H, 6H, 12H, 13H-indeno[2,3-a]pyrrolo[3,4-c]carbazole-7((7H)one [Compound I-8]	200 % of Control
O=C1NCc2c1c1c3ccccc3sc1c1[nH]c3ccccc3c21 [Compound I-43, 6H, 7H, 12H-Benzo[b]thieno[2,3-a]pyrrolo[3,4-c]carbazole-7(7H)one]	138 % of Control
O=c1[nH]c(=O)c2c1c1c3ccccc3[nH]c1c1c(=O)c3ccccc3c12 [Compound I-28, 12-Oxo-6H,13H-indeno[2,3-a]pyrrolo[3,4-c]carbazole-5,7(5H,7H)dione]	< 120 % of Control
COc1ccc2[nH]c3c4c(c5c(c3c2c1)CNC5=O)-c1ccccc1C4 [Compound I-13, 3-Methoxy-5H, 6H, 12H, 13H-Indeno[2,3-a]pyrrolo[3,4-c]carbazole-7(7H)one]	217 % of Control
O=C1NCc2c3c(c4[nH]c5ccc(Br)cc5c4c21)CCc1ccccc1-3 [Compound I-18, 3-Bromo-12,13-dihydro-6H, 7H, 14H-naphthyl[3,4-a]pyrrolo[3,4-c]carbazole-5(5H)one]	133 % of Control
O=C1NCc2c1c1c(c3[nH]c4ccc(I)cc4c23)Cc2ccccc2-1 [Compound I-40, 3-Iodo-5H, 6H, 12H, 13H-indeno[2,3-a]pyrrolo[3,4-c]carbazole-7(7H)-one]	150 % of Control
